Data reported in patent US12637428B2, “Isoquinoline derivatives as SIK2 inhibitors” (Cancer Research Technology Limited, priority 2019, dated 2026).
pKi: −log10 of the molar value.

How the values were obtained:
Assay type in all cases: biochemical
[1] = molecular target: T1, Abl (Homo sapiens, UniProt P00519); experiment: Abl kinase assay, IMAP fluorescence polarization; settings: 50 or 100 μM ATP, average
T1 construct: purchased Life Technologies
Description: (§1) SIK2, SIK1, SIK3, Abl, Src and EPHA2 Kinase Assays
(§2) SIK2, SIK1, SIK3, Abl, Src and EPHA2 assays were performed using an IMAP fluorescence polarization assay format (Molecular Devices Inc.). 0.6-13 nM of each kinase (Life Technologies) was incubated for 60 min at room temperature with 100 nM of either FAM-Abltide, FAM-Srctide or FAM-HDAC protein derived peptide (synthesized by Alta Biosciences, Birmingham UK). Assays were carried out in the presence of 50 or 100 μM ATP in either 20 mM Tris buffer (pH 7.2) containing 4 mM MgCl2, 0.2% BSA and 2 mM DTT (SIK2, SIK1, SIK3, Abl, Src); or 20 mM Tris buffer (pH 8.5) containing 20 mM MgCl2, 0.5% BSA, 0.2% Triton and 5 mM DTT (EPHA2). Typically, dose response analyses were performed over concentration ranges from 0.00005-1 μM. Reactions were stopped by adding 2 assay volumes of 0.25% (v/v) IMAP binding reagent in either an 85:15 ratio (SIK2, SIK1, SIK3, Abl, EPHA2) or 30:70 ratio (Src) of IMAP binding buffers A and B (Molecular Devices). After incubation to allow the detection reagents to bind to the phosphorylated peptide, fluorescence polarization was measured on a Tecan Infinite plate reader at excitation (470 nm) and emission (530 nm) wavelengths. Inhibition was calculated using no inhibitor and no enzyme controls as 0 and 100% inhibition, respectively.
(§3) Table 3 provides details of the inhibitory constant (nM) of compounds of the invention at SIK1, SIK2 and SIK3 and other kinases.

[2] = molecular target: T2, SIK1 (Homo sapiens, UniProt P57059); experiment: SIK1 kinase assay, IMAP fluorescence polarization; settings: 50 or 100 μM ATP, average
T2 construct: purchased Life Technologies
T2 sequence (P57059 whole entry): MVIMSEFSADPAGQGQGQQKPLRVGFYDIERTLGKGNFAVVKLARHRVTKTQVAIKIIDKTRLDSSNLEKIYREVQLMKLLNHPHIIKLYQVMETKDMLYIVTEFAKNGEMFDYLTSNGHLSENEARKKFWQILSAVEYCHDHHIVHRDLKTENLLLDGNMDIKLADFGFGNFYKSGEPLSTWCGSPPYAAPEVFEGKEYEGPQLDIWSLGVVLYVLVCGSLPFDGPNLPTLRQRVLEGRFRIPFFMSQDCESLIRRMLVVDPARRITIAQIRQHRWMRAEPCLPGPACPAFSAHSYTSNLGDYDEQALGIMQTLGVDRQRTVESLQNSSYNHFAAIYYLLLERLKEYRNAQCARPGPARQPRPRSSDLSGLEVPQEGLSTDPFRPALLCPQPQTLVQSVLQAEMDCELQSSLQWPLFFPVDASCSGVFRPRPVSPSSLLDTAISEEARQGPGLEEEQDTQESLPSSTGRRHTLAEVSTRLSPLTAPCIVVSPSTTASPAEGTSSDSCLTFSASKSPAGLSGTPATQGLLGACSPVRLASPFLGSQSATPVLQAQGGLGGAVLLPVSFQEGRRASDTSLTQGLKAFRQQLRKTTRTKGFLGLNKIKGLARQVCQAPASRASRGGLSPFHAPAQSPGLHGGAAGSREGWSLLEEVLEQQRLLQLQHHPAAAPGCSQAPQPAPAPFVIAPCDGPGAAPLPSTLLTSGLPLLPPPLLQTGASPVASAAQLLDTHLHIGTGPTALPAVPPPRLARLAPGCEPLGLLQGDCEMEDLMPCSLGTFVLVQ
Description: as §1, §2, §3

[3] = molecular target: T3, SIK2 (Homo sapiens, UniProt Q9H0K1); experiment: SIK2 kinase assay, IMAP fluorescence polarization; settings: 50 or 100 μM ATP, average
T3 construct: purchased Life Technologies
T3 sequence (Q9H0K1 whole entry): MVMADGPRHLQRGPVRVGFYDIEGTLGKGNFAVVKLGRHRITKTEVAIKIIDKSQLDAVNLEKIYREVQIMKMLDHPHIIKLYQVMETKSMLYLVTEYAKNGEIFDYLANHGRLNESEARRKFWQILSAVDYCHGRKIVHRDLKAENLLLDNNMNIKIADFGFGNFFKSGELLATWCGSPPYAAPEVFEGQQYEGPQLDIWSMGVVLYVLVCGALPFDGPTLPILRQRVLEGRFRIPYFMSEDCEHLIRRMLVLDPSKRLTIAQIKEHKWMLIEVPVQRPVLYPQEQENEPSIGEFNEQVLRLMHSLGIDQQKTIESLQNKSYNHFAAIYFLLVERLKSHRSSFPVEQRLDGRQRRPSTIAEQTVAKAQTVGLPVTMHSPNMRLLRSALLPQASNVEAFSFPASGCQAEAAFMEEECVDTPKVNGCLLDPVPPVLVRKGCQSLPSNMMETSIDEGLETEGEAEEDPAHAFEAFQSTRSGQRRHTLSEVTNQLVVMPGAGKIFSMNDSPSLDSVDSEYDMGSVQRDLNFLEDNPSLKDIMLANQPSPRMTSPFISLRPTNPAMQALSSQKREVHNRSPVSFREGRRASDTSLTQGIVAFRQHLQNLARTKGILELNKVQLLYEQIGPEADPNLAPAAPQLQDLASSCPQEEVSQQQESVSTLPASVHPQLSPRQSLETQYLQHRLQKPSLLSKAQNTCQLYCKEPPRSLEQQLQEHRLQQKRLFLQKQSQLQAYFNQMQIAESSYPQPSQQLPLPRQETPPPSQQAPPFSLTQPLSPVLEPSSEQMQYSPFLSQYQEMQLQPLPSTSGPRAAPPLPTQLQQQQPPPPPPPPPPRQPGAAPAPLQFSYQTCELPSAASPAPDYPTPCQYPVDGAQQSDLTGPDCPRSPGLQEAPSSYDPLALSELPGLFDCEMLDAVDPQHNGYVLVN
Description: as §1, §2, §3

[4] = molecular target: T4, SIK3 (Homo sapiens, UniProt Q9Y2K2); experiment: SIK3 kinase assay, IMAP fluorescence polarization; settings: 50 or 100 μM ATP, average
T4 construct: purchased Life Technologies
T4 sequence (Q9Y2K2 whole entry): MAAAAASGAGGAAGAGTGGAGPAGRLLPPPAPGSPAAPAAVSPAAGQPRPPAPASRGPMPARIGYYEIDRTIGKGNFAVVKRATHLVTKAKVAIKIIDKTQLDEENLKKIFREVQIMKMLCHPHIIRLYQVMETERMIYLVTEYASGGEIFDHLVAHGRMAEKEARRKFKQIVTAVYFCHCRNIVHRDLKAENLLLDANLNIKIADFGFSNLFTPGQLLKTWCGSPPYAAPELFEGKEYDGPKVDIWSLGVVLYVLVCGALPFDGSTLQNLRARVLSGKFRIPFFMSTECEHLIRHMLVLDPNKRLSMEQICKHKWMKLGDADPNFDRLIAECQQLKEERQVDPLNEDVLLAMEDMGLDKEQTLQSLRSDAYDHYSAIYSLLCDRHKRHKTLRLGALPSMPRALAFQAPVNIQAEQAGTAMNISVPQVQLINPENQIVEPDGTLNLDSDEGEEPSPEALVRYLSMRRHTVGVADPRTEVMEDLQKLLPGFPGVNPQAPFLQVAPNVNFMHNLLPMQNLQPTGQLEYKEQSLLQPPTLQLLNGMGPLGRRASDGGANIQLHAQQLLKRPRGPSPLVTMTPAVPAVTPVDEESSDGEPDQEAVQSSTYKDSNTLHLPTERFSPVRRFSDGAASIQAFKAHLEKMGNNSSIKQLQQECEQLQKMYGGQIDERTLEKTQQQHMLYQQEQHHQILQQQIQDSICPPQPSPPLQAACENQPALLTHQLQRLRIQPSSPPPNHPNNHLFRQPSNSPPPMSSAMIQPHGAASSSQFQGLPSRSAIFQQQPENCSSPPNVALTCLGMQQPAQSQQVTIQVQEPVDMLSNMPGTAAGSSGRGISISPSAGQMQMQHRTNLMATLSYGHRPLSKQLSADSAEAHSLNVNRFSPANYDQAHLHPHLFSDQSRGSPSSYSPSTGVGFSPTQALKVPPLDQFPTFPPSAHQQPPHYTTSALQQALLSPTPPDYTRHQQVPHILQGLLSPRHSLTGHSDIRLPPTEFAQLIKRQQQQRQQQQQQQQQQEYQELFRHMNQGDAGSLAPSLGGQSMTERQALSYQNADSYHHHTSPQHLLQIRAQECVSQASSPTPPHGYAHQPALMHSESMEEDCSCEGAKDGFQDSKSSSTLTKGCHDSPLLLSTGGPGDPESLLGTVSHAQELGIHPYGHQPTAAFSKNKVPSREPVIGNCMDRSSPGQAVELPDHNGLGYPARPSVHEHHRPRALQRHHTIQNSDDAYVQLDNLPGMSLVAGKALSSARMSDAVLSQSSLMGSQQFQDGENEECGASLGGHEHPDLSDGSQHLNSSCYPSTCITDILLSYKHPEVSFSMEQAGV
Description: as §1, §2, §3

[5] = molecular target: T5, Src (Homo sapiens, UniProt P12931); experiment: Src kinase assay, IMAP fluorescence polarization; settings: 50 or 100 μM ATP, average
T5 construct: purchased Life Technologies
Description: as §1, §2, §3

[6] = molecular target: T6, EPHA2 (Homo sapiens, UniProt P29317); experiment: EPHA2 kinase assay, IMAP fluorescence polarization; settings: 50 or 100 μM ATP, Tris pH 8.5, average
T6 construct: purchased Life Technologies
T6 sequence (P29317 24-976): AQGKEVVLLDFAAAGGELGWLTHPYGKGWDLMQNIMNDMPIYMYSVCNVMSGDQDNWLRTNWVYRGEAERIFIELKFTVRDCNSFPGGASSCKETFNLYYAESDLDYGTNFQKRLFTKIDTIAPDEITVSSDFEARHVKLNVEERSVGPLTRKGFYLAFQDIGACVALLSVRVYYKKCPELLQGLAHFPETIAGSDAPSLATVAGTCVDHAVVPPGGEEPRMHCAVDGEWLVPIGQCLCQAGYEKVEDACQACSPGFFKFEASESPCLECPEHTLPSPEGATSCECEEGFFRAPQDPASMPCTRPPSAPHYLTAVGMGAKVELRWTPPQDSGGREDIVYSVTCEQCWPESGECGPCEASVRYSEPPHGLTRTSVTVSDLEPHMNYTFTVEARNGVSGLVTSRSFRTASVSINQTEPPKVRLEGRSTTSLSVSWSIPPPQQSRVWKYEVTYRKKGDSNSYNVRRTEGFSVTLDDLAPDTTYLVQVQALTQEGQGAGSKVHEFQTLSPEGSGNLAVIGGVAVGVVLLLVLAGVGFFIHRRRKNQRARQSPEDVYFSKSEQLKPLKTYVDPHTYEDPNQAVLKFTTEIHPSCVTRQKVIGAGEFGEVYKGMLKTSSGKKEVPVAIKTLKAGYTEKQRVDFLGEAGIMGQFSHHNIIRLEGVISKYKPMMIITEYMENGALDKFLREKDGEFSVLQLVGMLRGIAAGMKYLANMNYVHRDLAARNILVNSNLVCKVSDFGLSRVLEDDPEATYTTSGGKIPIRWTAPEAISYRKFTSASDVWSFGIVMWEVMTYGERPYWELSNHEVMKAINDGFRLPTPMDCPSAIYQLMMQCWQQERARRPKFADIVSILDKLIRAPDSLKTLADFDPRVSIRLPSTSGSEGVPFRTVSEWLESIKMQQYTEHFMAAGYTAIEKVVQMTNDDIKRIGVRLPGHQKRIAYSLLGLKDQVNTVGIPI
Description: as §1, §2, §3

T1 sequence (P00519 whole entry): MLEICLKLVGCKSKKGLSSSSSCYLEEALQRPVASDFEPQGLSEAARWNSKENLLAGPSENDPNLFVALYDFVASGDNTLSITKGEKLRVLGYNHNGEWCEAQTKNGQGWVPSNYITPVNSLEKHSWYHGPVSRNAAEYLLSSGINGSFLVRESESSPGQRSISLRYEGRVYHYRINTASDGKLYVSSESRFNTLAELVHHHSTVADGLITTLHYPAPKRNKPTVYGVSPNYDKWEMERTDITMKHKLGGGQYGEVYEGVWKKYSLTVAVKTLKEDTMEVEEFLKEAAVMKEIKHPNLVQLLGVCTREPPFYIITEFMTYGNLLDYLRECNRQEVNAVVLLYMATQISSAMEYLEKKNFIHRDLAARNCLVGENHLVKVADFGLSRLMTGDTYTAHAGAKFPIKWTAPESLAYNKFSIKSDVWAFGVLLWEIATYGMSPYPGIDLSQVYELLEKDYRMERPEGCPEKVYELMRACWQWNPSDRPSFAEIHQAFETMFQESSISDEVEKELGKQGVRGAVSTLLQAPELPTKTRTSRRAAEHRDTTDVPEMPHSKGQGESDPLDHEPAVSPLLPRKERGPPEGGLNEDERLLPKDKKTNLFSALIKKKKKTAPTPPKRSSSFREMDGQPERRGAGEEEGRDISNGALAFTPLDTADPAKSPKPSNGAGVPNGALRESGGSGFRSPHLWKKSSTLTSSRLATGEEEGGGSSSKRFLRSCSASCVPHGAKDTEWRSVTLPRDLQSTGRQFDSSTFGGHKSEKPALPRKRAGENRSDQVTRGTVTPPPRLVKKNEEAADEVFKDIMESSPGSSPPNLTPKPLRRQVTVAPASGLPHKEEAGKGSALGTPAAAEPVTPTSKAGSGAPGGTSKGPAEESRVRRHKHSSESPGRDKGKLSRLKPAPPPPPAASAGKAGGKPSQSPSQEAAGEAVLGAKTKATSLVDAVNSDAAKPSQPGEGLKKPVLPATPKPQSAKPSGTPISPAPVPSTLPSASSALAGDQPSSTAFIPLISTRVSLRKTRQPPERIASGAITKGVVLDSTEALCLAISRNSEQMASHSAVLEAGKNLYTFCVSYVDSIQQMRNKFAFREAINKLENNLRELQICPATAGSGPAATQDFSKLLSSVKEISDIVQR

| SMILES | pKi [1] | pKi [2] | pKi [3] | pKi [4] | pKi [5] | pKi [6] |
| --- | --- | --- | --- | --- | --- | --- |
| Cc1cccc(F)c1-c1cc(N2CC[C@@H](N(C)C)C2)c2cc(N)ncc2c1 [Example 58, 5-[(3R)-3-(dimethylamino)pyrrolidin-1-yl]-7-(2-fluoro-6-methyl-phenyl)isoquinolin-3-amine] | 6.97 | 8.27 | 8.96 | 8.06 | 5.85 | < 6.00 |
| Cc1cccc(F)c1-c1cc(OC2CCNCC2)c2cc(N)ncc2c1 [Example 46, 7-(2-Fluoro-6-methyl-phenyl)-5-(4-piperidyloxy)isoquinolin-3-amine] | 8.44 | 9.72 | 10.69 | 9.90 | 7.02 | 7.41 |
| Cc1cccc(F)c1-c1cc(NC[C@H]2CCCN2C)c2cc(N)ncc2c1 [Example 73, 7-(2-fluoro-6-methyl-phenyl)-N5-[[(2R)-1-methylpyrrolidin-2-yl]methyl] isoquinoline-3,5-diamine] | 8.19 | 9.30 | 10.16 | 9.28 | 7.01 | 6.60 |
| Cc1cccc(F)c1-c1cc(NC(=O)C2CCNCC2)c2cc(N)ncc2c1 [Example 44, N-[3-Amino-7-(2-fluoro-6-methyl-phenyl)-5-isoquinolyl]piperidine-4-carboxamide] | 7.07 | 7.81 | 8.23 | 7.43 | 6.54 | 6.19 |
| Cc1cccc(Cl)c1-c1ccc2c(C(=O)NCC3CCNCC3)c(N)ncc2c1 [Example 40, 3-amino-7-(2-chloro-6-methyl-phenyl)-N-(4-piperidylmethyl)isoquinoline-4-carboxamide] | – | – | 7.40 | – | – | – |
| Nc1cc2c(NC3CCNCC3)cc(-c3c(F)cccc3Cl)cc2cn1 [Example 20, 7-(2-chloro-6-fluoro-phenyl)-N5-(4-piperidyl)isoquinoline-3,5-diamine] | – | – | 7.58 | – | – | – |
| Cc1cccc(F)c1-c1ccc2c(C(=O)N[C@@H]3CCNC3)c(N)ncc2c1 [Example 36, 3-amino-7-(2-fluoro-6-methyl-phenyl)-N-[(3R)-pyrrolidin-3-yl]isoquinoline-4-carboxamide] | – | – | 7.74 | – | – | – |
| Cc1cccc(Cl)c1-c1ccc2c(C(=O)NCC3CCN(C)CC3)c(N)ncc2c1 [Example 96, 3-amino-7-(2-chloro-6-methyl-phenyl)-N-[(1-methyl-4-piperidyl)methyl] isoquinoline-4-carboxamide] | – | – | 7.26 | – | – | – |
| Cc1cccc(F)c1-c1ccc2c(C(=O)NCC3CCN(C)CC3)c(N)ncc2c1 [Example 91, 3-amino-7-(2-fluoro-6-methyl-phenyl)-N-[(1-methyl-4-piperidyl)methyl] isoquinoline-4-carboxamide] | – | – | 7.32 | – | – | – |
| Cc1cccc(F)c1-c1ccc2c(C(=O)NCC3CN(C)C3)c(N)ncc2c1 [Example 90, 3-amino-7-(2-fluoro-6-methyl-phenyl)-N-[(1-methylazetidin-3-yl)methyl]isoquinoline-4-carboxamide] | – | – | 7.49 | – | – | – |
| Cc1cccc(Cl)c1-c1ccc2c(C(=O)NC3CCNCC3)c(N)ncc2c1 [Example 41, 3-amino-7-(2-chloro-6-methyl-phenyl)-N-(4-piperidyl)isoquinoline-4-carboxamide] | 6.72 | 8.22 | 8.43 | 7.21 | 7.23 | – |
| Cc1cccc(Cl)c1-c1ccc2c(C(=O)NC3CN(C)C3)c(N)ncc2c1 [Example 94, 3-amino-7-(2-chloro-6-methyl-phenyl)-N-(1-methylazetidin-3-yl)isoquinoline-4-carboxamide] | – | – | 7.84 | – | – | – |
| Cc1cccc(Cl)c1-c1ccc2c(C(=O)NCC3CNC3)c(N)ncc2c1 [Example 39, 3-amino-N-(azetidin-3-ylmethyl)-7-(2-chloro-6-methyl-phenyl)isoquinoline-4-carboxamide] | – | – | 7.71 | – | – | – |
| Cc1cccc(F)c1-c1cc(N2CC[C@H](O)C2)c2cc(N)ncc2c1 [Example 105, (3S)-1-[3-amino-7-(2-fluoro-6-methyl-phenyl)-5-isoquinolyl]pyrrolidin-3-ol] | 6.77 | – | 7.42 | – | < 5.00 | – |
| Cc1cccc(Cl)c1-c1ccc2c(C(=O)N[C@H]3CCNC3)c(N)ncc2c1 [Example 43, 3-amino-7-(2-chloro-6-methyl-phenyl)-N-[(3S)-pyrrolidin-3-yl]isoquinoline-4-carboxamide] | 6.46 | – | 8.18 | – | 6.87 | – |
| Cc1cccc(F)c1-c1cc(NC2CCCCC2)c2cc(N)ncc2c1 [Example 111, N5-cyclohexyl-7-(2-fluoro-6-methyl-phenyl)isoquinoline-3,5-diamine] | – | – | 7.08 | – | – | – |
| Cc1cccc(F)c1-c1cc(N2CC[C@@H](CN(C)C)C2)c2cc(N)ncc2c1 [Example 81, 5-[(3S)-3-[(dimethylamino)methyl]pyrrolidin-1-yl]-7-(2-fluoro-6-methyl-phenyl) isoquinolin-3-amine] | 6.53 | – | 8.11 | – | 5.87 | – |
| Cc1cccc(F)c1-c1ccc2c(C(=O)N[C@H]3CCN(C)C3)c(N)ncc2c1 [Example 93, 3-amino-7-(2-fluoro-6-methyl-phenyl)-N-[(3S)-1-methylpyrrolidin-3-yl]isoquinoline-4-carboxamide] | – | – | 7.57 | – | – | – |
| Cc1cccc(F)c1-c1ccc2c(C(=O)NCC3CCNCC3)c(N)ncc2c1 [Example 34, 3-amino-7-(2-fluoro-6-methyl-phenyl)-N-(4-piperidylmethyl)isoquinoline-4-carboxamide] | – | – | 7.38 | – | – | – |
| Cc1cccc(Cl)c1-c1ccc2c(C(=O)N[C@@H]3CCN(C)C3)c(N)ncc2c1 [Example 97, 3-amino-7-(2-chloro-6-methyl-phenyl)-N-[(3R)-1-methylpyrrolidin-3-yl]isoquinoline-4-carboxamide] | – | – | 7.89 | – | – | – |
| Cc1cccc(Cl)c1-c1ccc2c(C(=O)NC3CNC3)c(N)ncc2c1 [Example 38, 3-amino-N-(azetidin-3-yl)-7-(2-chloro-6-methyl-phenyl)isoquinoline-4-carboxamide] | 7.05 | – | 7.95 | – | 6.86 | 6.12 |
| Cc1cccc(F)c1-c1ccc2c(C(=O)NCC3CNC3)c(N)ncc2c1 [Example 33, 3-amino-N-(azetidin-3-ylmethyl)-7-(2-fluoro-6-methyl-phenyl)isoquinoline-4-carboxamide] | – | – | 7.93 | – | – | – |
| Cc1cccc(F)c1-c1ccc2c(C(=O)NC3CNC3)c(N)ncc2c1 [Example 32, 3-Amino-N-(azetidin-3-yl)-7-(2-fluoro-6-methyl-phenyl)isoquinoline-4-carboxamide] | 6.31 | – | 7.56 | – | 6.14 | – |
| Cc1cccc(F)c1-c1ccc2c(C(=O)N[C@@H]3CCN(C)C3)c(N)ncc2c1 [Example 92, 3-amino-7-(2-fluoro-6-methyl-phenyl)-N-[(3R)-1-methylpyrrolidin-3-yl]isoquinoline-4-carboxamide] | – | – | 7.77 | – | – | – |
| Cc1cccc(F)c1-c1ccc2c(C(=O)NC3CCN(C)CC3)c(N)ncc2c1 [Example 87, 3-Amino-7-(2-fluoro-6-methyl-phenyl)-N-(1-methyl-4-piperidyl)isoquinoline-4-carboxamide] | 6.18 | – | 8.00 | – | 6.24 | – |
| Cc1cccc(Cl)c1-c1ccc2c(C(=O)N[C@H]3CCN(C)C3)c(N)ncc2c1 [Example 98, 3-amino-7-(2-chloro-6-methyl-phenyl)-N-[(3S)-1-methylpyrrolidin-3-yl]isoquinoline-4-carboxamide] | 6.32 | – | 7.89 | – | 6.50 | – |
| Cc1cccc(F)c1-c1ccc2c(C(=O)NC3CCNCC3)c(N)ncc2c1 [Example 35, 3-amino-7-(2-fluoro-6-methyl-phenyl)-N-(4-piperidyl)isoquinoline-4-carboxamide] | 6.35 | – | 7.94 | – | 6.25 | – |
| Cc1cccc(F)c1-c1ccc2c(C(=O)N[C@H]3CCNC3)c(N)ncc2c1 [Example 37, 3-amino-7-(2-fluoro-6-methyl-phenyl)-N-[(3S)-pyrrolidin-3-yl]isoquinoline-4-carboxamide] | – | – | 8.11 | – | – | – |
| Cc1cccc(Cl)c1-c1ccc2c(C(=O)NCC3CN(C)C3)c(N)ncc2c1 [Example 95, 3-amino-7-(2-chloro-6-methyl-phenyl)-N-[(1-methylazetidin-3-yl)methyl]isoquinoline-4-carboxamide] | – | – | 7.50 | – | – | – |
| CN1CCC(Nc2cc(-c3c(F)cccc3Cl)cc3cnc(N)cc23)CC1 [Example 64, 7-(2-Chloro-6-fluoro-phenyl)-N5-(1-methyl-4-piperidyl)isoquinoline-3,5-diamine] | < 5.00 | – | 7.93 | – | 5.62 | – |
